Patent US20200069664A1, “METHODS FOR TREATING INFECTION” (Salix Pharmaceuticals, Ltd, priority 2010, published 2020)
Converted amounts (≈) assume the structure as drawn. Like-named read-outs stand apart in the source and are kept apart here.

How the values were obtained:
[1] = tested on: EAEC strain O42; type: cell-based, E. coli
[2] = tested on: HEp-2 cells; assay: Cytokine array of supernatants of treated HEp-2 cells; details: 64 μg/ml, 24 h; Panomics array of 36 cytokines
[3] = tested on: C difficile isolates; assay: In vitro susceptibility of C difficile isolates (agar dilution for rifaximin, Etest for rifampin)
[4] = tested on: EAEC; assay: Effect of dialyzed supernatants of treated HEp-2 cells on EAEC adherence; type: cell-based, E. coli; details: HEp-2 treated 24 h with 64 mg/ml (so in the source); chambered slides with or without HEp-2 cells, 3 h
Experimental: Supernatant dialysis. HEp-2 cells were cultured in T-175 flasks as described above. […] After 24 h, the medium was collected, loaded into regenerated cellulose dialysis tubing (cutoff, 6 to 8 kDa; Spectra/Por, Rancho Domiguez, Calif.), and dialyzed against 4 liters of PBS changed four times. Each dialysis step lasted at least 6 h and was carried out at 4° C. Dialyzed supernatants were either used immediately in adherence assays or stored at −20° C. until use.
The effect of supernatants on EAEC adherence was determined by mixing EAEC with the dialyzed media from the different antibiotic (or control) treatment groups and adding the bacteria to HEp-2 cells cultured in chambered slides or to chambered slides with no HEp-2 cells. Adherence was visualized microscopically as described above.

**Q.** Which “EAEC O42 adherence to pretreated HEp-2 cells (microscopy, stacked-brick pattern)” value [1] does the source give for `CO[C@H]1/C=C/O[C@@]2(C)Oc3c(C)c(O)c4c(O)c(c(/C=N/N5CCN(C)CC5)c(O)c4c3C2=O)NC(=O)/C(C)=C\C=C\[C@H](C)[C@H](O)[C@@H](C)[C@@H](O)[C@@H](C)[C@H](OC(C)=O)[C@@H]1C` [Rifampin, rifampin] here?
**A.** adhered in the traditional stacked-brick formation

**Q.** What about the “Cytokines detected in supernatants of treated HEp-2 cells” value [2] of the same compound?
**A.** same profile, except that MIPS was not detected

**Q.** What about the MIC50 [3] of the same compound?
**A.** < 0.002 µg/mL

**Q.** And the MIC90 [3]?
**A.** 4 µg/mL (≈ 4.86 µM)

**Q.** What about the MIC50 ([3]; 359 C difficile isolates) of the same compound?
**A.** <0.002 µg/mL

**Q.** What about the “Resistant isolates, percent of 359” value ([3]; resistance = MIC≥32 μg/mL, for rifaximin b194 says 'rifaximin alone') of the same compound?
**A.** 8%

**Q.** And the “Adherence of EAEC mixed with dialyzed supernatants from treated HEp-2 cells” value [4]?
**A.** adhered to chambers independently of the presence of HEp-2 cells
